# Results published in patent publication US20190203254A1, “CORTICAL NEURON CELL MODEL OF ALZHEIMER'S DISEASE BASED ON BMI1 DEFICIENCY, AND USES THEREOF” (9636137 Canada Inc., priority 2016, published 2019).
# Tests used:
# sAD patients = details: tested and abandoned in 2014 {De Strooper; cited from earlier work
# shBMI1 neurons [1] = type: cell-based, human
# Text: FIG. 5 is a panel with pictures and graphs illustrating that BMI1 deficiency in neurons results in activation of MAPT, GSK3b and p53. FIG. 5A: Immunoblots for AD-related proteins in shCTL, shBMI1 and BMI1 overexpressing (BMI1 OE) neurons. Protein expression ratios were established using Ponceau staining and where expression in shCTL neurons was set as 1. FIG. 5B: Confocal analysis of F-Actin (phalloidin), amyloid (PA3), p-Tau (PHF1) and activated caspase-3 (Casp3a) in shBMI1 neurons treated with DMSO, β-secretase inhibitor (BSI), γ-secretase inhibitor (GSI) or y-secretase modulator (GSM). Quantification was established using shCTL neurons set as 1. Scale bar: 40 μm.
# Human embryonic stem cells were differentiated into cortical neurons. The differentiation protocol was based on a previous study (Espuny-Camacho, I., et al., Pyramidal neurons derived from human pluripotent stem cells integrate efficiently into mouse brain circuits in vivo. Neuron 77, 440-456, (2013)). However, the Noggin agonist LDN193189 was used to reduce recombinant Noggin concentration. The H9 (WiCell™) and HUES9 (Harvard Stem Cell Institute) cell lines were dissociated using Accutase™ (Innovative Cell Technology #AT-104) and platted on growth factor reduced Matrigel™ (Corning #356231) in PeproGrow™ hES cell media (PeproTech #BM-hESC) supplemented with ROCK™ inhibitor (Y-27632; 10 μM, Cayman Chemical #10005583). Upon 70% of confluency, the media was changed to DDM supplemented with B27 (1× final), Noggin (10 ng/ml, PeproTech #120-10C) and LDN193189 (0.5 μM; Sigma #SML0559). The medium was changed every day. After 16 days of differentiation, the medium was changed to DDM/B27 and replenished every day. At day 24, neural progenitors were manually detached from the plate and mixed with lentiviral supernatant for 30 min at 37° C. Infected neural progenitors were subsequently mixed in DDM/B27 supplemented with ROCK™ inhibitor (Y-27632; 10 μM) and platted on growth factor reduced Matrigel™ coated plates or chamber slides (LabTek™ #154534). Five days after the dissociation/infection, half of the medium was changed for Neurobasal™ A media supplemented with B27 (1× final) and changed again every three days. For 3D cultures, neural progenitors at day 24 were mixed with ice-cold growth factor reduced Matrigel™ (1:20 dilution) and plated onto 8-well chamber slides. After 30 min of incubation at 37° C., fresh Neurobasal™ A/B27 were added.
# Sequence-specific oligonucleotides stretch shRNA designed to target the BMI-1 ORF (accession No.: BC011652): were synthetized. Oligo#1 (nt 1061-1081) 5′-CCTAATACT TTCCAGATTGAT-3′ (SEQ ID NO: 3) and oligoScramble (nt 573-591) 5′-GGTACTTCATTGATGCCAC-3′ (SEQ ID NO: 4) were used in this study. These sequences are followed by the loop sequence (TTCAAGAGA) (SEQ ID NO: 5) and finally the reverse complements of the targeting sequences. The double stranded shRNA sequences were cloned downstream of the H1P promoter of the H1 P-UbqC-HygroEGFP plasmid using Age1, SmaI, and XbaI cloning sites. The shRNA-expressing lentiviral plasmids were cotransfected with plasmids pCMVdR8.9 and pHCMV-G into 293FT packaging cells using Lipofectamin™ (Invitrogen) according to the manufacturers instructions. Viral containing media were collected, filtered, and concentrated by ultracentrifugation. Viral titers were measured by serial dilution on 293T cells followed by microscopic analysis 48 hr later. For viral transduction, lentiviral vectors were added to dissociated cells prior to plating. […]
# shBMI1 neurons [2] = assay: Confocal immunofluorescence for oligomeric amyloid (NU1) and Ab42 (PA3) in shBMI1 neurons treated with BSI (FIG. 3G); type: cell-based, human; details: BSI vs vehicle control
# Text: (§1) FIG. 3 is a panel with pictures and graphs illustrating that BMI1 deficiency in neurons results in p-Tau and amyloid accumulation. FIG. 3A: p-Tau (PHF1) accumulation in shBMI1 neurons but not in shCTL neurons (day 14). Scale bar: 40 mm. FIG. 3B: p-Tau (PHF1) accumulation in broken axonal segments of glutamatergic shBMl1 neurons (arrows), and co-localization of p-Tau with vGLUT1 in axonal swellings (arrows in the inset). Scale bar: 40 mm. FIG. 3C: Quantification of PHF1-positive neurons and of p-Tau foci/axon in shCTL (n=3) and shBMI1 (n=3) cultures. All values are mean±SEM. (*) P<0.05; (**) P<0.01 by Student's unpaired t-test. FIG. 3D: Confocal immunofluorescence for the apoptosis marker activated caspase-3 in shCTL and shBMl1 cultures. Scale bar: 40 mm. FIG. 3E: Quantification of activated caspase-3 positive cells in GABA+ and GABA− neuronal populations. All values are mean±SEM. (*) P<0.05 by Student's unpaired t-test. FIG. 3F: Amyloid accumulation in shBMl1 neurons as compared to shCTL neurons using the MOAB2 or PA3 antibodies. Scale bars: 40 mm. FIG. 3G: Confocal immunofluorescence for oligomeric amyloid (NU1) and Ab42 (PA3) of shCTL and shBMI1 neurons treated with beta-secretase inhibitor (BSI) or vehicle control. FIG. 3H: Intracellular and extracellular Ab42 levels in shCTL (n=3) and shBMl1 (n=3) neurons by ELISA. […]
# shBMI1 neurons [3] = assay: Ab42 levels by ELISA in shBMI1 neurons treated with BSI (FIG. 3H); type: cell-based, human; details: BSI vs vehicle control
# Text: as §1
# [4] = BMI1-deficient neurons, working concentration BSI 1 μM, GSI 0.5 μM, GSM 30 μM, FIG. 5B
smiles,measurement,setting,value
"C[C@H](NC(=O)Cc1cc(F)cc(F)c1)C(=O)N[C@H](C(=O)OC(C)(C)C)c1ccccc1 [GSI, DAPT]",neuro-toxicity in sAD patients,sAD patients,high
same,toxicity for BMI1-knockdown human cortical neurons,shBMI1 neurons [1],toxic
same,p-Tau localization,"shBMI1 neurons [1]; BMI1-deficient neurons, GSI 0.5 μM, FIG. 5B",re-localization of p-Tau to the neuronal soma suggested tangle formation
same,amyloid immuno-reactivity (PA3) / C99/amyloid accumulation,shBMI1 neurons [1]; [4],reached saturation levels
same,p-Tau (PHF1) immuno-reactivity / intensity,shBMI1 neurons [1]; [4],reduced
same,most pathological parameters,"shBMI1 neurons [1]; BMI1-deficient neurons, working concentration GSI 0.5 μM, GSM 30 μM, FIG. 5B",did not improve
"C[C@@H](NC(=O)c1cc(C(=O)N[C@@H](Cc2ccccc2)[C@H](O)CNC2CC2)cc(N(C)S(C)(=O)=O)c1)c1ccccc1 [BSI, BSI-IV]",amyloid immunoreactivity (antibodies against Ab42),shBMI1 neurons [2],highly reduced
same,amyloid (Ab42) concentration by ELISA,shBMI1 neurons [3],normalized
